The values below are quoted from earlier work in patent publication US20070135390A1, “Phosphate derivatives” (priority 2003, published 2007).

The conditions of this data set: printed as in vitro use.

Regarding “Phenol, 2,6-bis(1-methylethyl)-, dihydrogen phosphate (9CI) [propofol phosphate]”, the induction of anesthesia entry is “does not however induce anesthesia”.
